Measured values taken from ChEMBL document CHEMBL5512632, “Unlocking the potential of 1,4-naphthoquinones: A comprehensive review of their anticancer properties” (Eur J Med Chem, 2024).

Columns and labels:
HeLa [1] = assay: Cytotoxicity against human HeLa cells incubated for 48 hrs by MTT assay; type: functional, cell-based
HepG2 [2] = assay: Cytotoxicity against human HepG2 cells incubated for 48 hrs by MTT assay; type: functional, cell-based; conditions: HepG2, 48 h
HCT-116 [3] = assay: Cytotoxicity against human HCT-116 cells assessed as inhibition of cell growth incubated for 72 hrs by resazurin assay; type: functional, cell-based; conditions: HCT-116, 72 h
Huh-7 = assay: Cytotoxicity against human Huh-7 cells assessed as inhibition of cell growth incubated for 72 hrs by resazurin assay; type: functional, cell-based; conditions: Huh-7, 72 h
MCF7 [4] = assay: Cytotoxicity against human MCF7 cells assessed as inhibition of cell growth incubated for 72 hrs by resazurin assay; type: functional, cell-based; conditions: MCF7, 72 h
MDA-MB-231 [5] = assay: Cytotoxicity against human MDA-MB-231 cells assessed as inhibition of cell growth incubated for 72 hrs by resazurin assay; type: functional, cell-based; conditions: MDA-MB-231, 72 h
U-87 MG = assay: Cytotoxicity against human U87 cells assessed as inhibition of cell growth incubated for 72 hrs by resazurin assay; type: functional, cell-based, U-87MG ATCC
HeLa [6] = assay: Cytotoxicity against human HeLa cells incubated for 48 hrs by MTT microplate reader assay; type: functional, cell-based
B16-F10 = assay: Antiproliferative activity against mouse B16-F10 cells assessed as inhibition of cell growth incubated for 72 hrs by Sulforhodamine B assay; type: functional, cell-based; conditions: B16-F10, 72 h
MDA-MB-231 [7] = assay: Antiproliferative activity against human MDA-MB-231 cells assessed as inhibition of cell growth incubated for 72 hrs by Sulforhodamine B assay; type: functional, cell-based; conditions: MDA-MB-231, 72 h
A549 [8] = assay: Antiproliferative activity against human A549 cells assessed as inhibition of cell growth incubated for 72 hrs by Sulforhodamine B assay; type: functional, cell-based; conditions: A549, 72 h
SK-BR-3 = assay: Antiproliferative activity against human SK-BR-3 cells assessed as inhibition of cell growth incubated for 72 hrs by Sulforhodamine B assay; type: functional, cell-based; conditions: SK-BR-3, 72 h
C6 = assay: Antiproliferative activity against rat C6 cells assessed as inhibition of cell growth incubated for 72 hrs by Sulforhodamine B assay; type: functional, cell-based; conditions: C6, 72 h
MCF7 [9] = assay: Antiproliferative activity against human MCF7 cells assessed as inhibition of cell growth incubated for 72 hrs by Sulforhodamine B assay; type: functional, cell-based; conditions: MCF7, 72 h
[10] = Antiproliferative activity against human HGF cells assessed as inhibition of cell growth incubated for 72 hrs by Sulforhodamine B assay; type: toxicity, cell-based
MDA-MB-231 [11] = assay: Growth inhibition of human MDA-MB-231 cells incubated for 48 hrs by Sulforhodamine B reagent based spectrophotometric assay; type: functional
MCF7 [12] = assay: Growth inhibition of human MCF7 cells incubated for 48 hrs by Sulforhodamine B reagent based spectrophotometric assay; type: functional
MCF7 [13] = assay: Antiproliferative activity against human MCF7 cells assessed as inhibition of cell growth incubated for 48 hrs by MTT reagent based spectrophotometric analysis; type: functional; conditions: MCF7, 48 h
HepG2 [14] = assay: Antiproliferative activity against human HepG2 cells assessed as inhibition of cell growth incubated for 48 hrs by MTT reagent based spectrophotometric analysis; type: functional; conditions: HepG2, 48 h
MDA-MB-231 [15] = assay: Antiproliferative activity against human MDA-MB-231 cells assessed as inhibition of cell growth incubated for 72 hrs by WST-1 assay; type: functional, cell-based; conditions: MDA-MB-231, 72 h
COLO-829 = assay: Antiproliferative activity against human COLO-829 cells assessed as inhibition of cell growth incubated for 72 hrs by WST-1 assay; type: functional, cell-based; conditions: COLO-829, 72 h
MCF7 [16] = assay: Antiproliferative activity against human MCF7 cells assessed as inhibition of cell growth incubated for 72 hrs by WST-1 assay; type: functional, cell-based; conditions: MCF7, 72 h
A549 [17] = assay: Antiproliferative activity against human A549 cells assessed as inhibition of cell growth incubated for 72 hrs by WST-1 assay; type: functional, cell-based; conditions: A549, 72 h
Caco-2 = assay: Antiproliferative activity against human Caco-2 cells assessed as inhibition of cell growth incubated for 72 hrs by WST-1 assay; type: functional, cell-based; conditions: Caco-2, 72 h
T47D = assay: Antiproliferative activity against human T47D cells assessed as inhibition of cell growth incubated for 72 hrs by WST-1 assay; type: functional, cell-based
HeLa [18] = assay: Antiproliferative activity against human HeLa cells assessed as inhibition of cell growth incubated for 48 hrs by MTS assay; type: functional, cell-based
B16 = assay: Antiproliferative activity against mouse B16 cells assessed as inhibition of cell growth incubated for 48 hrs by MTS assay; type: functional, cell-based; conditions: B16, 48 h
MCF7 [19] = assay: Antiproliferative activity against human MCF7 cells assessed as inhibition of cell growth incubated for 48 hrs by MTS assay; type: functional, cell-based; conditions: MCF7, 48 h
NCI-H1299 = assay: Antiproliferative activity against human NCI-H1299 cells assessed as inhibition of cell growth incubated for 48 hrs by MTS assay; type: functional, cell-based; conditions: NCI-H1299, 48 h
HCT-116 [20] = assay: Antiproliferative activity against human HCT-116 cells assessed as inhibition of cell growth incubated for 48 hrs by MTS assay; type: functional, cell-based; conditions: HCT-116, 48 h
HCT-116 [21] = assay: Antiproliferative activity against human HCT-116 cells assessed as inhibition of cell growth incubated for 24 hrs by BrdU incorporation assay; type: functional, cell-based; conditions: HCT-116, 24 h
HT-29 = assay: Antiproliferative activity against human HT-29 cells assessed as inhibition of cell growth incubated for 24 hrs by BrdU incorporation assay; type: functional, cell-based; conditions: HT-29, 24 h
U2OS = assay: Antiproliferative activity against human U2OS cells assessed as inhibition of cell growth incubated for 48 hrs by MTT assay; type: functional, cell-based
SAOS-2 = assay: Antiproliferative activity against human SAOS-2 cells assessed as inhibition of cell growth incubated for 48 hrs by MTT assay; type: functional, cell-based; conditions: SAOS-2, 48 h
HeLa [22] = assay: Antiproliferative activity against human HeLa cells assessed as inhibition of cell growth incubated for 48 hrs by MTT assay; type: functional, cell-based
SH-SY5Y = assay: Antiproliferative activity against human SH-SY5Y cells assessed as inhibition of cell growth incubated for 48 hrs by MTT assay; type: functional, cell-based
HCT-116 [23] = assay: Antiproliferative activity against human HCT-116 cells assessed as inhibition of cell growth by MTT assay; type: functional, cell-based
OVCAR-3 = assay: Antiproliferative activity against human OVCAR-3 cells assessed as inhibition of cell growth incubated for 48 hrs by MTT reagent based spectrophotometric analysis; type: functional; conditions: OVCAR-3, 48 h
A2780 = assay: Antiproliferative activity against human A2780 cells assessed as inhibition of cell growth incubated for 48 hrs by MTT reagent based spectrophotometric analysis; type: functional; conditions: A2780, 48 h
SK-OV-3 = assay: Antiproliferative activity against human SK-OV-3 cells assessed as inhibition of cell growth incubated for 48 hrs by MTT reagent based spectrophotometric analysis; type: functional; conditions: SK-OV-3, 48 h
K562 = assay: Antiproliferative activity against human K562 cells assessed as inhibition of cell growth incubated for 72 hrs by MTT assay; type: functional, cell-based; conditions: K562, 72 h

With `C[C@@H](CC[C@H]1O[C@H]2C[C@H]3[C@@H]4CC=C5C[C@@H](O)CC[C@]5(C)[C@H]4CC[C@]3(C)[C@H]2[C@@H]1C)COC1=C(Cl)C(=O)c2ccccc2C1=O` the IC50 (HeLa [1]) was 14.1 µM and the IC50 (HepG2 [2]) was 1.24 µM.
Compound `CCOC(=O)C(NC1=C(Cl)C(=O)c2ccccc2C1=O)C(C)=O` (stereo unspecified) has an IC50 (HCT-116 [3]) of 13.9 µM, an IC50 (Huh-7) of 18.3 µM and an IC50 (MCF7 [4]) of 24.5 µM. It also gave an IC50 (MDA-MB-231 [5]) of 15.9 µM and an IC50 (U-87 MG) of 18.9 µM.
In the case of `COc1ccc(C(C2=C(O)C(=O)c3ccccc3C2=O)c2c(C)[nH]n(-c3ccccc3)c2=O)c(O)c1` (stereo unspecified), the IC50 (HeLa [6]) is reported as 2.9 µM.
With `CC(=O)OC[C@H]1O[C@H](n2cc(COC3=CC(=O)c4ccccc4C3=O)nn2)[C@H](OC(C)=O)[C@H](OC(C)=O)[C@H]1OC(C)=O` the IC50 (B16-F10) was 5.3 µM, the IC50 (MDA-MB-231 [7]) was 14 µM and the IC50 (A549 [8]) was 8.5 µM. For the same compound, the IC50 (SK-BR-3) was 0.78 µM, the IC50 (C6) was 14.7 µM and the IC50 (MCF7 [9]) was 3.33 µM. It also gave an IC50 at 72 h [10] of 17.7 µM.
With `O=C1C(Cl)=C(N2CCN(Cc3ccc4c(c3)OCO4)CC2)C(=O)c2ccccc21` the GI50 (MDA-MB-231 [11]) was 5 µM and the GI50 (MCF7 [12]) was 5.8 µM.
With `O=C1C(Cl)=C(NNc2nnc3n2N=C(c2ccc(Cl)cc2)CS3)C(=O)c2ccccc21` the IC50 (MCF7 [13]) was 8.49 µM and the IC50 (HepG2 [14]) was 0.07 µM.
Work on `C=C(C)[C@@H]1CC[C@]2(COC(=O)c3cn(CCCOC4=C(Cl)C(=O)c5ccccc5C4=O)nn3)CC[C@]3(C)[C@H](CC[C@@H]4[C@@]5(C)CC[C@H](O)C(C)(C)[C@@H]5CC[C@]43C)[C@@H]12` yielded an IC50 (MDA-MB-231 [15]) of 10 µM, an IC50 (COLO-829) of 12.5 µM and an IC50 (MCF7 [16]) of 11.7 µM. For the same compound, the IC50 (A549 [17]) was 1.86 µM, the IC50 (Caco-2) was 12.2 µM and the IC50 (T47D) was 2.41 µM.
`CN(C)C(=S)SCC1=C(CSC(=S)N(C)C)C(=O)c2ccccc2C1=O` showed an IC50 (HeLa [18]) of 0.122 µM, an IC50 (B16) of 0.104 µM and an IC50 (MCF7 [19]) of 0.069 µM. It also gave an IC50 (NCI-H1299) of 0.109 µM and an IC50 (HCT-116 [20]) of 0.088 µM.
For `O=C1C(Cl)=C(Oc2ccc(-c3oc4cc(O)cc(O)c4c(=O)c3O)cc2O)C(=O)c2ccccc21`, the IC50 (HCT-116 [21]) was 10.3 µM and the IC50 (HT-29) was 23.2 µM.
For `CC(=O)N[C@@H](CSC1=CC(=O)c2ccccc2C1=O)C(=O)O`, the IC50 (U2OS) was 1.81 µM, the IC50 (SAOS-2) was 1.67 µM and the IC50 (HeLa [22]) was 0.54 µM. The IC50 (SH-SY5Y) was 0.87 µM.
`O=C1C=C(Sc2ccc([N+](=O)[O-])cc2)C(=O)c2ccccc21` gave an IC50 (HCT-116 [23]) of 5.32 µM.
`O=C1C=C(N(Cc2ccccn2)Cc2ccccn2)C(=O)c2ccccc21` gave an IC50 (OVCAR-3) of 6.8 µM, an IC50 (A2780) of 5.6 µM and an IC50 (SK-OV-3) of 2.8 µM.
`O=C1C=C(Nc2ccc(S(=O)(=O)c3ccc(NC(=S)N4CCCCC4)cc3)cc2)C(=O)c2ccccc21` showed an IC50 (K562) of 5.8 µM.
